For one test, the target named is T1, M1 (Homo sapiens, UniProt P11229).
T1 construct: host or cells: Chem-1 cells with promiscuous Gα15
The experiment in a line: GPCR Profiler. It is filed as cell-based.

In another test the target is T2, DRAK1 (Homo sapiens, UniProt Q9UEE5).
T2 construct: purchased DiscoveRx (Fremont, CA), KinomeScan service
In words: KinomeScan. The test is classed as binding. The conditions noted are these: read-out: % Control.

A further test deals with T3, PRKCH (Homo sapiens, UniProt P24723).
T3 construct: purchased DiscoveRx (Fremont, CA)
In words: KinomeScan. The test is classed as binding. The conditions noted are these: read-out: % Control.

The next test addresses T4, BRAF (Homo sapiens, UniProt P15056).
T4 construct: purchased DiscoveRx (Fremont, CA)
In words: KinomeScan. It is filed as binding. To be noted: read-out: % Control.

A further test deals with T5, PIK4CB (Homo sapiens, UniProt Q9UBF8).
T5 construct: purchased DiscoveRx (Fremont, CA)
In words: KinomeScan. The conditions noted are these: read-out: % Control. The test is classed as binding.

A further test deals with T6, EIF2AK1 (Homo sapiens, UniProt Q9BQI3).
T6 construct: purchased DiscoveRx (Fremont, CA)
In words: KinomeScan. The test is classed as binding. To be noted: read-out: % Control.

The target of a further test is T7, ADRA1A (Homo sapiens, UniProt P35348).
T7 construct: host or cells: Chem-1 cells with promiscuous Gα15
In words: GPCR Profiler. It is filed as cell-based.

A further test concerns the target T8, INSR (Homo sapiens, UniProt P06213).
T8 construct: purchased DiscoveRx (Fremont, CA)
The experiment in a line: KinomeScan. It is filed as binding. To be noted: read-out: % Control.

For the next test, the target named is T9, MEK1 (Homo sapiens, UniProt Q02750).
T9 construct: purchased DiscoveRx (Fremont, CA)
The experiment in a line: KinomeScan. It is filed as binding. To be noted: read-out: % Control.

For another test, the target named is T10, OPRK1 (Homo sapiens, UniProt P41145).
T10 construct: host or cells: Chem-1 cells expressing Gα15
In words: GPCR Profiler. The test is classed as cell-based.

The target of the next test is T11, TIE2 (Homo sapiens, UniProt Q02763).
T11 construct: purchased DiscoveRx (Fremont, CA)
In words: KinomeScan. It is filed as binding. To be noted: read-out: % Control.

The target of the next test is T12, PK1 (Homo sapiens, UniProt Q8TCW9).
T12 construct: host or cells: Chem-1 cells with Gα15
The experiment in a line: GPCR Profiler. It is filed as cell-based.

A further test concerns the target T13, MELK (Homo sapiens, UniProt Q14680).
T13 construct: purchased DiscoveRx (Fremont, CA)
In words: KinomeScan. It is filed as binding. The conditions noted are these: read-out: % Control.

The next test concerns the target T14, TTK (Homo sapiens, UniProt P33981).
T14 construct: purchased DiscoveRx
In words: KinomeScan. To be noted: read-out: % Control. It is filed as binding.

A further test concerns the target T15, EPHA5 (Homo sapiens, UniProt P54756).
T15 construct: purchased DiscoveRx (Fremont, CA)
The experiment in a line: KinomeScan. It is filed as binding. The conditions noted are these: read-out: % Control.

The next test concerns the target T16, PRKG1 (Homo sapiens, UniProt Q13976).
T16 construct: purchased DiscoveRx (Fremont, CA)
The experiment in a line: KinomeScan. To be noted: read-out: % Control. It is filed as binding.

Another test relates to MDA-MB-436. The experiment in a line: Cell Titer-Glo viability, Breast adenocarcinoma. It is filed as cell-based. The protocol: (§1) OGM2 kills wide variety of cancer cell types. Cell sensitivity can be classified in to Very Sensitive (LC50<2 μM), Sensitive (LC50=2 to 10 μM), Mildly Sensitive (LC50>10 μM), and Refractory (no killing at 10 μM). The listed established cell were incubated with OGM2 at 2 μM or 10 μM for 72 hours under standard cell culture conditions, and relative cell number was assessed using Cell Titer-Glo Luminescent Cell Viability Assay (Promega™) following the manufacturer's instructions. Luminescence was determined using a Cytation 5 reader and Gen5 software package (BioTek™).
(§2) Cancer cells, which are very sensitive to killing by OGM2 (LCs <2 μM), with reported mRNA expression of GPR68 and the related proton sensing receptor GPR4. LC50's (concentrations causing 50% lethality) were determined using CellTiter-Glo (Promega™, G7570). Cells were plated in 12-well plates (CELLTREAT Scientific Products, 229112) in 1 ml of DMEM with high glucose, GlutaMAX, HEPES, or RPMI 1640 with Penicillin-Streptomycin (ThermoFisher™, 10564029, 11875119 and 15140122) and 10% FBS. Cells were incubated overnight at 37° C. in 5% CO2. Then 1 mL of fresh media was added with DMSO, OGM, or positive control (Erastin; APExBIO Technology, LLC, B1524) and cells incubated for 3 days. On the third day, all media was removed, cells were rinsed with 1×PBS, PBS was removed, and 200 μL of 1× Passive Lysis Buffer (Promega™, E1941) was added to each well. […]. Subsequently, 20 μL of lysate was added to 100 μL CellTiter-Glo™ reagent on a LUMITRAC 200 plate (Greiner™ bio-one, 82050-726). Plates were briefly spun down and read on a GloMax-Multi Detection System (Promega™).
(§3) The cells listed in the tables above were incubated with OGM2 at 2 μM or 10 μM for 72 hours under standard cell culture conditions, and relative cell number was assessed using Cell Titer-Glo Luminescent Cell Viability Assay (Promega™) following the manufacturer's instructions. Luminescence was determined using a Cytation 5 reader and Gen5 software package (BioTek™). RNA expression of GPR68 and GPR4 in the corresponding cancer cell lines are listed, according to the publicly available The Human Protein Atlas version 22.0 and Ensembl version 103.38 (see proteinatlas.org). The consensus normalized expression value (“nTPM”=normalize transcript per million) was calculated as the maximum nTPM value for each gene in the two data sources.
In general terms: ATP-based viability assays read luminescence as a measure of living cells.

Another test concerns MDA-MB-231. The experiment in a line: Cell Titer-Glo viability, Breast adenocarcinoma. The test is classed as cell-based. On the procedure: as §1, §2, §3
In a further test the test system is MCF7. The experiment in a line: Cell Titer-Glo viability, Breast adenocarcinoma. The test is classed as cell-based. The protocol:
as §1, §2, §3

The next test deals with PC3. In words: Liperfluo lipid peroxidation. It is filed as cell-based, human. The text has this:
(§4) OGM2 kills prostate cancer cells by inducing ferroptosis (FIG. 100). […] OGM2 induces ferroptosis in DU145 cells (FIG. 100A) and PC3 cells (FIG. 100C) based on Liperfluo™ lipid peroxidation assay. Erastin, a cystine-glutamate antiporter system Xc^− inhibitor, is a positive control ferroptosis inducer.

Another test relates to DU145. In words: Liperfluo lipid peroxidation. The test is classed as cell-based, human.
Description: as §4

T1 sequence (P11229 whole entry): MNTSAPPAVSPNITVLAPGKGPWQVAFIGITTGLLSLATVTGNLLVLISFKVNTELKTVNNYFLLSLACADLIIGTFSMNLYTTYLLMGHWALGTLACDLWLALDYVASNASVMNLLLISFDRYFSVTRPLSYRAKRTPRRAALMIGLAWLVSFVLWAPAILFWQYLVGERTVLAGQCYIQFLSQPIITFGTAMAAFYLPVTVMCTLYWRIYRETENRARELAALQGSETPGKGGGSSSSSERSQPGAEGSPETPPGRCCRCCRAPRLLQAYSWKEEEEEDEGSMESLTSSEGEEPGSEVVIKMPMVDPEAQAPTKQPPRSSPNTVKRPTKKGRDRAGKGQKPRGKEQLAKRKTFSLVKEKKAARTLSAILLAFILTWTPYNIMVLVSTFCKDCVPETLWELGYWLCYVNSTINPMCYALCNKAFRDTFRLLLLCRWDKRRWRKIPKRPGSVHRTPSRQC
T10 sequence (P41145 whole entry, species assumed): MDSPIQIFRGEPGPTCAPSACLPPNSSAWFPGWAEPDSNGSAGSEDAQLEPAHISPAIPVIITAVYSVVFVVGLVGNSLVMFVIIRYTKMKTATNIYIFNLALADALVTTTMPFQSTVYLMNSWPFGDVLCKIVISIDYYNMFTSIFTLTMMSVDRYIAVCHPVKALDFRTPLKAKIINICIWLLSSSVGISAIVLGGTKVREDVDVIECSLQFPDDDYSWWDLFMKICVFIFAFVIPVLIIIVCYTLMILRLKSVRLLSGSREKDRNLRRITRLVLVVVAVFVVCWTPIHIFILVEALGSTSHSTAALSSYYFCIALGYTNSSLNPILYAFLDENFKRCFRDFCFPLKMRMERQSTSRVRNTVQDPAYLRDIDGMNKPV
T7 sequence (P35348 whole entry): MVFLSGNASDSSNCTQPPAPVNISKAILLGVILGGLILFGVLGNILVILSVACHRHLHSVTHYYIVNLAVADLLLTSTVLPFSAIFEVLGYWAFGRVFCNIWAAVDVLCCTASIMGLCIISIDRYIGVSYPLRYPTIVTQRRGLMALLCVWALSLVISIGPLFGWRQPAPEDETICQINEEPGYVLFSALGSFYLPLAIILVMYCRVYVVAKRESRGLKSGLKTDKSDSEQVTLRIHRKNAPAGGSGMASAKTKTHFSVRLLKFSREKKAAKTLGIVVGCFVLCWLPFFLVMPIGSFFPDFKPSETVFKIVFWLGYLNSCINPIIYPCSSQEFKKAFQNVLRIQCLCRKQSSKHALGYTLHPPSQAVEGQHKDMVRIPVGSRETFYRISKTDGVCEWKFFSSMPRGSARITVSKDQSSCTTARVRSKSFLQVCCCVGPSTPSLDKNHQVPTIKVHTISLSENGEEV
T12 sequence (Q8TCW9 whole entry): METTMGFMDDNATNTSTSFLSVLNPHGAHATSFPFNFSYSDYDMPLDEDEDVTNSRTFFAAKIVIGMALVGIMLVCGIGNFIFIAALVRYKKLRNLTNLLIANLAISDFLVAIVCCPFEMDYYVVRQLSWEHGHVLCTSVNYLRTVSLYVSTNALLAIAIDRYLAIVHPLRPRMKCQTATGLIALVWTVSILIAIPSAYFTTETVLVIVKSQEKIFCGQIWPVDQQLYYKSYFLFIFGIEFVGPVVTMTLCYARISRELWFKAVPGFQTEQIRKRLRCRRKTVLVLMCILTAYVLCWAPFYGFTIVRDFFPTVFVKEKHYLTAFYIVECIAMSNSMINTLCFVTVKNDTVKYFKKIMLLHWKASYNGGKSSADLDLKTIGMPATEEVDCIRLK
T2 sequence (Q9UEE5 whole entry): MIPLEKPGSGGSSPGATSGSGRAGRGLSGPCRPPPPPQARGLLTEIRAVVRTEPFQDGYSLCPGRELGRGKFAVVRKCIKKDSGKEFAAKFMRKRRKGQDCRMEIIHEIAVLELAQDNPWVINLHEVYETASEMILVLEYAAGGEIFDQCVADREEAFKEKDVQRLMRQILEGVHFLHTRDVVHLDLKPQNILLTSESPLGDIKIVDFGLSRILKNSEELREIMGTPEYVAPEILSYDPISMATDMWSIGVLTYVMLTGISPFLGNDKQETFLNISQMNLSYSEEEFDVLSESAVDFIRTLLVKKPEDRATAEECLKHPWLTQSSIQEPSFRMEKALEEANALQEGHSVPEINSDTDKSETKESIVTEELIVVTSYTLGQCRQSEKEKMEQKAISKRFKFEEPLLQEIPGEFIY
T15 sequence (P54756 25-1037): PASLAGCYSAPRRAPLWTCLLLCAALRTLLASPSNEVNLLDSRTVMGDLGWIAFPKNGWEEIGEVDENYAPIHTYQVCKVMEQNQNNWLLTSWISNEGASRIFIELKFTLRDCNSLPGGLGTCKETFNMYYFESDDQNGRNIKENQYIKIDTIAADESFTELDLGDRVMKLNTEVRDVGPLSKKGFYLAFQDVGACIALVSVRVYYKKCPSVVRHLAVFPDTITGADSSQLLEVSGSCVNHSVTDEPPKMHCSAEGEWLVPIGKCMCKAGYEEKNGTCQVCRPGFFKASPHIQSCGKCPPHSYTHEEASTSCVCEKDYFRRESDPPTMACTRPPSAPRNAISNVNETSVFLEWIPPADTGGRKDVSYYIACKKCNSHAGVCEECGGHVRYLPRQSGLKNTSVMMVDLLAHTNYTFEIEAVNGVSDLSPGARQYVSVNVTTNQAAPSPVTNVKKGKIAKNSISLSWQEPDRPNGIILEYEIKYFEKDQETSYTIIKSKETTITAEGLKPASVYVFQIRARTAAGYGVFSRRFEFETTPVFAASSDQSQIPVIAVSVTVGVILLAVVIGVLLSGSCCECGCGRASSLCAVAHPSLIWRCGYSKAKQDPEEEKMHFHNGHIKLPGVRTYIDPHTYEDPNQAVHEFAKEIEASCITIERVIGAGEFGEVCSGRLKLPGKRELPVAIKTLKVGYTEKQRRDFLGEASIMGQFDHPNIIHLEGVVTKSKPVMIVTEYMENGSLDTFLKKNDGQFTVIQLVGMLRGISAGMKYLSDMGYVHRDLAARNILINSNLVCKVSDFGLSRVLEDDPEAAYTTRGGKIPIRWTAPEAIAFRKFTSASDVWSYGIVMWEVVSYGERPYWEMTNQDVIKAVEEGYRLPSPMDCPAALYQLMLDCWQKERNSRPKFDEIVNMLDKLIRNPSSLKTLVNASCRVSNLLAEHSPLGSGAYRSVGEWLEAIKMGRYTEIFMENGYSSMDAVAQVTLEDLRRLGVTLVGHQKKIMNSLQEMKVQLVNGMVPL
T11 sequence (Q02763 23-1124): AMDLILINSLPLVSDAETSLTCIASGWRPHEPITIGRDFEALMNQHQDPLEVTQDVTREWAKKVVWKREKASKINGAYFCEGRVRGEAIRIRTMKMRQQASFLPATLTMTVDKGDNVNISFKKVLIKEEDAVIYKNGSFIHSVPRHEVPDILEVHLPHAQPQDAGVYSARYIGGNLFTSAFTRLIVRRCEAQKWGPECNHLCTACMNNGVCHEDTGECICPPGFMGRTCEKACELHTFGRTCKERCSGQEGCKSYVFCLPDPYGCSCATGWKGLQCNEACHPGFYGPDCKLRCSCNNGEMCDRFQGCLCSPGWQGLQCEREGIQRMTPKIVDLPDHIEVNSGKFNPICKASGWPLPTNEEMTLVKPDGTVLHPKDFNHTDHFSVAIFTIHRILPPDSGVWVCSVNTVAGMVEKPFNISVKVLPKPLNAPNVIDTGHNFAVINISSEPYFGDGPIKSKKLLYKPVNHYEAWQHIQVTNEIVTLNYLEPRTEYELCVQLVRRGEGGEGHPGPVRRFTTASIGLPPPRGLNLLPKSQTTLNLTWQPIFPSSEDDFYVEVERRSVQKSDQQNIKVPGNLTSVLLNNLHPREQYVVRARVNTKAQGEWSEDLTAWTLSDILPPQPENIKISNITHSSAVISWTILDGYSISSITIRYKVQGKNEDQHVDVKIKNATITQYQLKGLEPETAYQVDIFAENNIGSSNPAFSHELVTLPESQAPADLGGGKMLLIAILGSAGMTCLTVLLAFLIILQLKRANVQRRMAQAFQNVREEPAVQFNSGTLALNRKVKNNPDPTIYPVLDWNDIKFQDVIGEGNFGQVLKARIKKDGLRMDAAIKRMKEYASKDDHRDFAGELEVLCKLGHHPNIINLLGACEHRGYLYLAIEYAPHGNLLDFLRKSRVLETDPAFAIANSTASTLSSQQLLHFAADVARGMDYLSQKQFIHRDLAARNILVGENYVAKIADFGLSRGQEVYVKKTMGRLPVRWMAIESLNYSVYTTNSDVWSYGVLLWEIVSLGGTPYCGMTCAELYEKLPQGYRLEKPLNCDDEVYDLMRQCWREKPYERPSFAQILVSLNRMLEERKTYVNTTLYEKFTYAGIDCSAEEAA
T13 sequence (Q14680 whole entry): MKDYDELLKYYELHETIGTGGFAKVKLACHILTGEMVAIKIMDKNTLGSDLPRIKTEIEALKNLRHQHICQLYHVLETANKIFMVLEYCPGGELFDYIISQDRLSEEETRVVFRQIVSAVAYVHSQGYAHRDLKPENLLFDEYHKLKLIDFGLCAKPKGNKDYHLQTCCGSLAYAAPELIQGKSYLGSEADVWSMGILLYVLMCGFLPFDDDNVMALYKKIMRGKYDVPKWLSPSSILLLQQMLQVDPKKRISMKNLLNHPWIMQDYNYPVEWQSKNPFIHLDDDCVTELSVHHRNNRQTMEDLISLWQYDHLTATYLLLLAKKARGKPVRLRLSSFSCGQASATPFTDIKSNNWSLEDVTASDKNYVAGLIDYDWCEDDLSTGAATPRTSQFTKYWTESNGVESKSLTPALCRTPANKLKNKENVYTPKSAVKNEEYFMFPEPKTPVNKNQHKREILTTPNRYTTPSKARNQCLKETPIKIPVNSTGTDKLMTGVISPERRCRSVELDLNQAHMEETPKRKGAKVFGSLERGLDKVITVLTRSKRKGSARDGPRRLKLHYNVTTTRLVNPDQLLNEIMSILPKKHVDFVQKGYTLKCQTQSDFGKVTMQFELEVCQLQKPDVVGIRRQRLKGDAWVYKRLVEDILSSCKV

With `CCc1ccc2c(c1)C1(NN=C(c3cccc4ccccc34)S1)C(=O)N2` (stereo not shown) [OGM1, 5-ethyl-5′-naphthalen-1-ylspiro[1H-indole-3,2′-3H-1,3,4-thiadiazole]-2-one], the Antagonism is on record as −3.3 on M1 (10 uM), 3 on ADRA1A (10 uM), −8.1 on OPRK1 (10 uM) and −8 on PK1 (10 uM). The Agonism turned out to be 0.8 at M1 (12.5 uM), 1.9 on ADRA1A (12.5 uM), 4.3 on OPRK1 (12.5 uM) and 0.2 at PK1 (12.5 uM). Further, the remaining binding at 10 µM worked out at 100% at DRAK1; 100% on PRKCH; 96% on BRAF; 71% at PIK4CB; 100% at EIF2AK1; 80% on INSR. The remaining binding at 10 µM at MEK1 is 84%; at TIE2, 100%; at MELK, 100%; on TTK, 75%; on EPHA5 it was 97%; on PRKG1, 100%.
For the molecule `CCc1ccc2c(c1)C1(NN=C(c3ccccc3)S1)C(=O)N2` (stereo not shown) [OGM2], the Class result with MDA-MB-436, in the test with MDA-MB-231 and with MCF7 was “Sensitive (Sensitive (LC50=2 to 10 μM))” in each case. Further, the “% Survival 2 μM OGM” value turned out to be 52.6% in the test with MDA-MB-436 (72 hours), 70.1% in the test on MDA-MB-231 (72 hours) and 50.6% in the test on MCF7 (72 hours). In addition, the “% Survival 10 μM OGM” value with MDA-MB-436 (72 hours) turned out to be 35.7%; in the test with MDA-MB-231 (72 hours), 48.1%; in the test with MCF7 (72 hours), 25.2%. The CC50 was 2 to 10 µM in the test with MDA-MB-436 (Homo sapiens, MDA-MB-436, 72 hours, read-out: LC50 (the source's name)); 2 to 10 µM in the test with MDA-MB-231 (Homo sapiens, MDA-MB-231, 72 hours, read-out: LC50 (the source's name)); 2 to 10 µM in the test on MCF7 (Homo sapiens, MCF7, 72 hours, read-out: LC50 (the source's name)). Also, the lipid peroxidation entry in the test with PC3 and with DU145 was “significantly increased lipid peroxidation” in each case.
